Assay results: patent publication US20090181898A1, “ABUSE-RESISTANT A[…]” (SHIRE LLC, priority 2002, published 2009)
“And” between values parts separate entries of the source, which are not always exact repeats. Equal values may be shown once.

What was measured:
[1] = Clinical pharmacokinetics, 25 and 75 mg, compared to Adderall XR and Dexedrine Spansule
children with ADHD = experiment: Pediatric crossover efficacy study, SKAMP-Deportment score
rats = experiment: Single oral dose toxicity; format: in vivo, Sprague Dawley rats; conditions: rat
Description: Three male and three female Sprague Dawley rats per group were given a single oral administration of L-lysine-d-amphetamine at 0.1, 1.0, 10, 60, 100, or 1000 mg/kg (Table 53).
Animals found dead, or sacrificed moribund were necropsied and discarded.

[2] = Oral dose-escalation abuse liability study (pharmacokinetics) in adults with stimulant abuse history
[3] = human, in vivo, po, 75 mg, L-lysine-d-amphetamine intact conjugate concentration, oral 75 mg L-lysine-d-amphetamine, individual subjects
[4] = human, in vivo, po, 75 mg, L-lysine-d-amphetamine intact conjugate concentration, oral 75 mg L-lysine-d-amphetamine, mean
[5] = human, oral 25 mg L-lysine-d-amphetamine, individual subjects
[6] = human, oral 75 mg L-lysine-d-amphetamine, individual subjects

CC(Cc1ccccc1)NC(=O)C(N)CCCCN [L-lysine-d-amphetamine, 2,6-diaminohexanoic acid-(1-methyl-2-phenylethyl)-amide]
concentration at 4 h ([1]; human, in vivo, po, 75 mg, L-lysine-d-amphetamine intact conjugate concentration, oral 75 mg L-lysine-d-amphetamine, 4 h, mean): 0.8 ng/mL | concentration at 5 h ([1]; human, in vivo, po, 75 mg, L-lysine-d-amphetamine intact conjugate concentration, oral 75 mg L-lysine-d-amphetamine, 5 h, individual subjects): 0 ng/mL | concentration at 5 h ([1]; human, in vivo, po, 75 mg, L-lysine-d-amphetamine intact conjugate concentration, oral 75 mg L-lysine-d-amphetamine, 5 h, mean): 0 ng/mL | concentration at 6 h ([1]; human, in vivo, po, 75 mg, L-lysine-d-amphetamine intact conjugate concentration, oral 75 mg L-lysine-d-amphetamine, 6 h, individual subjects): 0 ng/mL | concentration at 6 h ([1]; human, in vivo, po, 75 mg, L-lysine-d-amphetamine intact conjugate concentration, oral 75 mg L-lysine-d-amphetamine, 6 h, mean): 0 ng/mL | concentration at 7 h ([1]; human, in vivo, po, 75 mg, L-lysine-d-amphetamine intact conjugate concentration, oral 75 mg L-lysine-d-amphetamine, 7 h, individual subjects): 0 ng/mL | concentration at 7 h ([1]; human, in vivo, po, 75 mg, L-lysine-d-amphetamine intact conjugate concentration, oral 75 mg L-lysine-d-amphetamine, 7 h, mean): 0 ng/mL | concentration at 8 h ([1]; human, in vivo, po, 75 mg, L-lysine-d-amphetamine intact conjugate concentration, oral 75 mg L-lysine-d-amphetamine, 8 h, individual subjects): 0 ng/mL | concentration at 8 h ([1]; human, in vivo, po, 75 mg, L-lysine-d-amphetamine intact conjugate concentration, oral 75 mg L-lysine-d-amphetamine, 8 h, mean): 0 ng/mL | concentration at 10 h ([1]; human, in vivo, po, 75 mg, L-lysine-d-amphetamine intact conjugate concentration, oral 75 mg L-lysine-d-amphetamine, 10 h, individual subjects): 0 ng/mL | concentration at 10 h ([1]; human, in vivo, po, 75 mg, L-lysine-d-amphetamine intact conjugate concentration, oral 75 mg L-lysine-d-amphetamine, 10 h, mean): 0 ng/mL | concentration at 12 h ([1]; human, in vivo, po, 75 mg, L-lysine-d-amphetamine intact conjugate concentration, oral 75 mg L-lysine-d-amphetamine, 12 h, individual subjects): 0 ng/mL | concentration at 12 h ([1]; human, in vivo, po, 75 mg, L-lysine-d-amphetamine intact conjugate concentration, oral 75 mg L-lysine-d-amphetamine, 12 h, mean): 0 ng/mL | concentration at 16 h [1, 3]: 0 ng/mL | concentration at 16 h [1, 4]: 0 ng/mL | concentration at 24 h [1, 3]: 0 ng/mL | concentration at 24 h [1, 4]: 0 ng/mL | concentration at 48 h [1, 3]: 0 ng/mL | concentration at 48 h [1, 4]: 0 ng/mL | concentration at 72 h [1, 3]: 0 ng/mL | concentration at 72 h [1, 4]: 0 ng/mL | L-lysine-d-amphetamine intact conjugate concentration ([1]; human, oral 25 mg L-lysine-d-amphetamine, 1 h, individual subjects): 9.2 ng/mL and 10.9 ng/mL and 11.2 ng/mL and 15.2 ng/mL and 12.5 ng/mL and 9.1 ng/mL and 2.7 ng/mL and 20.1 ng/mL and 10.5 ng/mL and 10.8 ng/mL | L-lysine-d-amphetamine intact conjugate concentration ([1]; human, oral 25 mg L-lysine-d-amphetamine, 2 h, individual subjects): 2.1 ng/mL and 3.1 ng/mL and 1.4 ng/mL and 2.5 ng/mL and 2.9 ng/mL and 1.9 ng/mL and 4.0 ng/mL and 2.3 ng/mL and 0 ng/mL and 1.7 ng/mL | L-lysine-d-amphetamine intact conjugate concentration ([1]; human, oral 25 mg L-lysine-d-amphetamine, 3 h, individual subjects): 0 ng/mL | L-lysine-d-amphetamine intact conjugate concentration ([1]; human, oral 25 mg L-lysine-d-amphetamine, 4 h, individual subjects): 0 ng/mL | L-lysine-d-amphetamine intact conjugate concentration ([1]; human, oral 25 mg L-lysine-d-amphetamine, 5 h, individual subjects): 0 ng/mL | L-lysine-d-amphetamine intact conjugate concentration ([1]; human, oral 25 mg L-lysine-d-amphetamine, 6 h, individual subjects): 0 ng/mL | L-lysine-d-amphetamine intact conjugate concentration ([1]; human, oral 25 mg L-lysine-d-amphetamine, 7 h, individual subjects): 0 ng/mL | L-lysine-d-amphetamine intact conjugate concentration ([1]; human, oral 25 mg L-lysine-d-amphetamine, 8 h, individual subjects): 0 ng/mL | L-lysine-d-amphetamine intact conjugate concentration ([1]; human, oral 25 mg L-lysine-d-amphetamine, 10 h, individual subjects): 0 ng/mL | L-lysine-d-amphetamine intact conjugate concentration ([1]; human, oral 25 mg L-lysine-d-amphetamine, 12 h, individual subjects): 0 ng/mL | L-lysine-d-amphetamine intact conjugate AUCinf [1, 5]: 10.62 ng·h/mL and 12.83 ng·h/mL and 11.64 ng·h/mL and 17.66 ng·h/mL and 12.65 ng·h/mL and 9.759 ng·h/mL and 19.56 ng·h/mL and 13.3 ng·h/mL | L-lysine-d-amphetamine intact conjugate AUClast [1, 5]: 9.18 ng·h/mL and 10.41 ng·h/mL and 10.95 ng·h/mL and 16.31 ng·h/mL and 10.68 ng·h/mL and 8.583 ng·h/mL and 5.439 ng·h/mL and 18.51 ng·h/mL and 10.77 ng·h/mL and 12.35 ng·h/mL | L-lysine-d-amphetamine intact conjugate Cmax [1, 5]: 9.18 ng/mL and 10.9 ng/mL and 11.2 ng/mL and 15.2 ng/mL and 12.5 ng/mL and 9.05 ng/mL and 6.18 ng/mL and 20.1 ng/mL and 10.5 ng/mL and 10.8 ng/mL | L-lysine-d-amphetamine intact conjugate Tmax [1, 5]: 1.5 h | L-lysine-d-amphetamine intact conjugate AUCinf [1, 6]: 52.5 ng·h/mL and 87.0 ng·h/mL and 45.0 ng·h/mL and 33.0 ng·h/mL and 44.9 ng·h/mL and 52.3 ng·h/mL and 34.2 ng·h/mL and 31.4 ng·h/mL and 102.9 ng·h/mL and 111.7 ng·h/mL | L-lysine-d-amphetamine intact conjugate AUClast [1, 6]: 51.2 ng·h/mL and 86.1 ng·h/mL and 44.2 ng·h/mL and 32.0 ng·h/mL and 43.7 ng·h/mL and 50.4 ng·h/mL and 30.9 ng·h/mL and 29.8 ng·h/mL and 102.1 ng·h/mL and 110.8 ng·h/mL | L-lysine-d-amphetamine intact conjugate Cmax [1, 6]: 48.0 ng/mL and 80.1 ng/mL and 40.5 ng/mL and 29.0 ng/mL and 41.5 ng/mL and 26.5 ng/mL and 30.8 ng/mL and 23.4 ng/mL and 127.0 ng/mL and 88.9 ng/mL | L-lysine-d-amphetamine intact conjugate Tmax [1, 6]: 1.5 h | Intact conjugate as percent of total drug absorption (AUCinf-molar basis) ([1]; humans, oral, 25 mg): 1.6% | Bioavailability over twelve hours vs Adderall XR® (d-amphetamine plus l-amphetamine levels) ([1]; humans, oral, 75 mg): approximately equivalent | Bioavailability over twelve hours vs Dexedrine Spansule® ([1]; humans, oral, 75 mg): over twenty percent higher | Intact conjugate as percent of total drug absorption (AUCinf-molar basis) ([1]; humans, oral, 75 mg): 2.0% | Bioavailability (AUCinf) of d-amphetamine vs both extended release amphetamine products ([1]; humans, oral, 75 mg vs Adderall XR® 35 mg and Dexedrine Spansule® 30 mg): approximately equivalent | Time of peak levels of intact conjugate ([1]; humans, oral, 25 and 75 mg): about one hour | Elimination of intact conjugate ([1]; humans, oral, even at the highest dose): no detectable concentrations present by five hours | Duration of action (children with ADHD; children 6-12, SKAMP): 12 h | Onset of significant effects post morning dose (children with ADHD; children 6-12, SKAMP): ≤ 2 h | SKAMP-Deportment score compared to placebo (children with ADHD; children 6-12, once daily for 1 week each treatment): highly effective compared to placebo | Mortality (rats; oral, 1000 mg/kg): only one death occurred out of a group of six animals | Lethal oral dose (rats; single oral administration): above 1000 mg/kg | Adverse reactions ([2]; adults with stimulant abuse, oral, 30-150 mg): mild in severity | half-life ([2]; human, in vivo, po): 0.44 to 0.76 h
